Experimental findings from patent publication US8268881B2, “Carboxamide derivatives as muscarinic receptor antagonists” (Pfizer Limited, priority 2005, dated 2012) are described below.

The target of the first assay is T1, human muscarinic M3 receptor (Homo sapiens, UniProt P20309).
T1 construct: expressed in transfected cells
T1 sequence (P20309 whole entry): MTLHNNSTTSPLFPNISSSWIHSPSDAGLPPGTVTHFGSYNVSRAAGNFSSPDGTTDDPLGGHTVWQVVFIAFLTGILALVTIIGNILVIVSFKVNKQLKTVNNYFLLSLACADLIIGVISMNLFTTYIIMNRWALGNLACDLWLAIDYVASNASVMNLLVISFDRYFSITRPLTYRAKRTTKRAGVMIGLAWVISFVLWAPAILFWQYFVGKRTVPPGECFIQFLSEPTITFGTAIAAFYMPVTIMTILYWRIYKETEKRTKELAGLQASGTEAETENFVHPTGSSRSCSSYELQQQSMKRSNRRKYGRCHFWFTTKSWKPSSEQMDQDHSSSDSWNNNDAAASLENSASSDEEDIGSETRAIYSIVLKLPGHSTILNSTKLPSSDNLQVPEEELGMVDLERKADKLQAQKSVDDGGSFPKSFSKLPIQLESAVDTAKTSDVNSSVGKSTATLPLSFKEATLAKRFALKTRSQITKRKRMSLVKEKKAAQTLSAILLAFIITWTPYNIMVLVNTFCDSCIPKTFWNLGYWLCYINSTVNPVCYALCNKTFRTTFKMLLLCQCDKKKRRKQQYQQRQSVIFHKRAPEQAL
Briefly: hM3 β-Lac potency assay (cell based β-lactamase). To be noted: CHO cells expressing human M3 receptor, NFAT β-lactamase reporter; […]; IC50 converted to Ki by Cheng-Prusoff; read-out: Cell based β-lactamase M3 Ki. The procedure: M3 potency was determined in CHO-K1 cells transfected with the NFAT-Betalactamase gene. CHO (Chinese Hamster Ovary) cells recombinantly expressing the human muscarinic M3 receptor were transfected with the NFAT_β-Lac_Zeo plasmid.
The cells were re-suspended at 2×10^5 cells/ml in growth medium (composition as described above). […] Inhibition curves were plotted and IC50 values generated using a 4-parameter sigmoid fit and converted to Ki values using the Cheng-Prusoff correction and the KD value for carbamyl choline in the assay.
In the case of `COc1cccc(OC2CN(C(C)(C)CCC(C#N)(c3ccccc3)c3ccccc3)C2)c1` [Example 99, 5-[3-(3-Methoxyphenoxy)azetidin-1-yl]-5-methyl-2,2-diphenylhexanenitrile], the Ki was 65.7 nM.

Take `CC(C)(CCC(C#N)(c1ccccc1)c1ccccc1)N1CC[C@H](Oc2ccccc2)C1` [Example 1, 5-Methyl-5-[(3S)-3-phenoxypyrrolidin-1-yl]-2,2-diphenylhexanenitrile]: the inhibitory constant (Ki) came to 8.34 nM.

The assay is the same for the next values; noted with them: CHO cells expressing human M3 receptor, NFAT β-lactamase reporter; inhibition of 80 nM carbamyl choline signal, 4 h; IC50 converted to Ki by Cheng-Prusoff; read-out: Cell based β-lactamase M3 Ki.
On to `CC(C)(CCC(C(N)=O)(c1ccccc1)c1ccccc1)N1CC(OCc2ccccc2)C1` [Example 102, 5-[3-(Benzyloxy)azetidin-1-yl]-5-methyl-2,2-diphenylhexanamide], for which the inhibitory constant (Ki) stood at 0.0636 nM.

For `Cc1cccc(O[C@H]2CCN(C(C)(C)CCC(C(N)=O)(c3ccccc3)c3ccccc3)C2)c1` [Example 14, 5-Methyl-5-[(3S)-3-(3-methylphenoxy)pyrrolidin-1-yl]-2,2-diphenylhexanamide], the inhibitory constant (Ki) was 1.32 nM.

As for `CC(C)(CCC(C(N)=O)(c1ccccc1)c1ccccc1)N1CC(Oc2cc(O)cc(F)c2)C1` [Example 121, 5-{3-(3-Fluoro-5-hydroxy-phenoxy)-azetidin-1-yl}-5-methyl-2,2-diphenylhexanamide], the Ki came out at 0.604 nM.

In the case of `CC(C)(CCC(C(N)=O)(c1ccccc1)c1ccccc1)N1CC[C@@H](OCc2cccc(O)c2)C1` [Example 54, 5-[(3R)-3-(3-Hydroxy-benzyloxy)-pyrrolidin-1-yl]-5-methyl-2,2-diphenyl-hexanoic acid amide], the inhibition constant Ki worked out at 3.62 nM.

As for `CC(C)(CCC(C#N)(c1ccccc1)c1ccccc1)N1CC(Oc2cccc(O)c2)C1` [Example 150, 5-[3-(3-Hydroxy-phenoxy)-azetidin-1-yl]-5-methyl-2,2-diphenyl-hexanenitrile], the Ki came out at 1.05 nM.

Regarding `CC(C)(CCC(C(N)=O)(c1ccccc1)c1ccccc1)N1CC(OCc2ccc(O)cc2)C1` [Example 152, 5-[3-(4-Hydroxy-benzyloxy)-azetidin-1-yl]-5-methyl-2,2-diphenyl-hexanoic acid amide], the inhibitory constant (Ki) is 0.229 nM.

Consider `COc1c(Cl)cccc1O[C@@H]1CCN(C(C)(C)CCC(C(N)=O)(c2ccccc2)c2ccccc2)C1` [Example 42, 5-[(3R)-3-(3-Chloro-2-Methoxy-phenoxy)-pyrrolidin-1-yl]-5-methyl-2,2-diphenyl-hexanoic acid amide], for which the Ki is 22.1 nM.

Take `CC(C)(CCC(C(N)=O)(c1ccccc1)c1ccccc1)N1CC[C@H](Oc2ccc(-c3cccc(O)c3)cc2)C1` [Example 18, 5-{(3S)-3-[(3′-Hydroxybiphenyl-4-yl)oxy]pyrrolidin-1-yl}-5-methyl-2,2-diphenylhexanamide]: the inhibition constant (Ki) worked out at 6.96 nM.

For the compound `CC(C)(CCC(C(N)=O)(c1ccccc1)c1ccccc1)N1CC[C@H](Oc2ccc(C(F)(F)F)cc2)C1` [Example 24, 5-[(3S)-3-(4-trifluoromethyl-phenoxy)pyrrolidin-1-yl]-5-methyl-2,2-diphenylhexanamide], the Ki was determined as 20.7 nM.

`CC(C)(CCC(C(N)=O)(c1ccccc1)c1ccccc1)N1CC(OCc2ccc(Cl)c(O)c2)C1` [Example 138, 5-[3-(4-Chloro-3-hydroxy-benzyloxy)-azetidin-1-yl]-5-methyl-2,2-diphenyl-hexanoic acid amide]: the Ki stood at 0.468 nM.

Take `CC(C)(CCC(C(N)=O)(c1ccccc1)c1ccccc1)N1CC(Oc2ccccc2O)C1` [Example 109, 5-[3-(2-Hydroxyphenoxy)azetidin-1-yl]-5-methyl-2,2-diphenylhexanamide]: the Ki was found to be 10.8 nM.

Regarding `CC(C)(CCC(C(N)=O)(c1ccccc1)c1ccccc1)N1CC[C@H](OCc2cccc(-c3cccc(O)c3)c2)C1` [Example 61, 5-{(3S)-3-[(3′-Hydroxybiphenyl-3-yl)methoxy]pyrrolidin-1-yl}-5-methyl-2,2-diphenylhexanamide], the Ki amounted to 9.85 nM.

As to `NC(=O)C(CCC1(N2CC(Oc3ccc(O)c(F)c3)C2)CCCC1)(c1ccccc1)c1ccccc1` [Example 145, 4-{1-[3-(3-Fluoro-4-hydroxy-phenoxy)-azetidin-1-yl]-cyclopentyl}-2,2-diphenyl-butyramide], the inhibition constant Ki came to 10.8 nM.

Consider `CC(C)(CCC(C(N)=O)(c1ccccc1)c1ccccc1)N1CC[C@H](Oc2cccc(Br)c2)C1` [Example 17, 5-[(3S)-3-(3-Bromophenoxy)pyrrolidin-1-yl]-5-methyl-2,2-diphenylhexanamide], for which the Ki is 5.11 nM.

Turning to `CC(C)(CCC(C(N)=O)(c1ccccc1)c1ccccc1)N1CC[C@H](OCc2cccc(-c3ccccc3O)c2)C1` [Example 64, 5-{(3S)-3-[(2′-Hydroxybiphenyl-3-yl)methoxy]pyrrolidin-1-yl}-5-methyl-2,2-diphenylhexanamide], the Ki was found to be 65.6 nM.

Regarding `CC(C)(CCC(C(N)=O)(c1ccccc1)c1ccccc1)N1CC(Oc2cccc(O)c2)C1` [Example 108, 5-[3-(3-Hydroxyphenoxy)azetidin-1-yl]-5-methyl-2,2-diphenylhexanamide], the Ki was determined as 0.201 nM.

For the compound `CC(C)(CCC(C#N)(c1ccccc1)c1ccccc1)N1CCC(OCc2ccccc2)CC1` [Example 89, 5-[4-(Benzyloxy)piperidin-1-yl]-5-methyl-2,2-diphenylhexanenitrile], the Ki came to 159 nM.

`CC(C)(CCC(C(N)=O)(c1ccccc1)c1ccccc1)N1CC[C@@H](OCc2ccc(Cl)c(O)c2)C1` [Example 79, 5-[(3R)-3-(4-Chloro-3-hydroxy-benzyloxy)-pyrrolidin-1-yl]-5-methyl-2,2-diphenyl hexanamide]: the inhibitory constant (Ki) came to 16.2 nM.

For the compound `CC(C)(CCC(C(N)=O)(c1ccccc1)c1ccccc1)N1CC[C@H](Oc2cc(O)c(Cl)cc2Cl)C1` [Example 31, 5-[(3S)-3-(2,4-Dichloro-5-Hydroxy-phenoxy)-pyrrolidin-1-yl]-5-methyl-2,2-diphenyl-hexanoic acid amide], the Ki was 45.1 nM.

On to `COc1cccc(O[C@H]2CCN(C(C)(C)CCC(C(N)=O)(c3ccccc3)c3ccccc3)C2)c1` [Example 6, 5-[(3S)-3-(3-methoxyphenoxy)pyrrolidin-1-yl]-5-methyl-2,2-diphenylhexanamide], for which the Ki stood at 1.02 nM.

As for `CC(C)(CCC(C(N)=O)(c1ccccc1)c1ccccc1)N1CC[C@H](OCc2ccc(-c3cccc(O)c3)cc2)C1` [Example 65, 5-[(3S)-3-[(3′-Hydroxybiphenyl-4-yl)methoxy]pyrrolidin-1-yl]5-methyl-2,2-diphenylhexanamide], the Ki is 62.7 nM.

For the compound `CC(C)(CCC(C(N)=O)(c1ccccc1)c1ccccc1)N1CC(Oc2cc(O)cc(Br)c2)C1` [Example 142, 5-[3-(3-Bromo-5-hydroxy-phenoxy)-azetidin-1-yl]-5-methyl-2,2-diphenyl-hexanoic acid amide], the Ki was 8.05 nM.

As to `COc1cc(O[C@@H]2CCN(C(C)(C)CCC(C(N)=O)(c3ccccc3)c3ccccc3)C2)ccc1Cl` [Example 81, 5-[(3R)-3-(3-methoxy-4-chloro-Phenoxy)-pyrrolidin-1-yl]-5-methyl-2,2-diphenylhexanamide], the Ki is 35.4 nM.

For the compound `COc1cc(F)cc(O[C@@H]2CCN(C(C)(C)CCC(C(N)=O)(c3ccccc3)c3ccccc3)C2)c1` [Example 73, 5-[(3R)-3-(3-Fluoro-5-methoxy-phenoxy)-pyrrolidin-1-yl]-5-methyl-2,2-diphenylhexanamide], the inhibition constant (Ki) was 0.852 nM.

In the case of `CC(C)(CCC(C(N)=O)(c1ccccc1)c1ccccc1)N1CC[C@H](Oc2cc(O)cc(C#N)c2)C1` [Example 68, 5-[(3S)-3-(3-Cyano-5-hydroxy-phenoxy)-pyrrolidin-1-yl]-5-methyl-2,2-diphenylhexanamide], the Ki amounted to 9.88 nM.

For `CC(C)(CCC(C(N)=O)(c1ccccc1)c1ccccc1)N1CCC(Oc2cc(O)c(Cl)cc2Cl)CC1` [Example 93, 5-[4-(2,4-Dichloro-5-hydroxy-phenoxy)-piperidin-1-yl]-5-methyl-2,2-diphenylhexanoic acid amide], the inhibitory constant (Ki) came out at 26.8 nM.

As to `CC(C)(CCC(C(N)=O)(c1ccccc1)c1ccccc1)N1CC[C@@H](Oc2ccc3ncoc3c2)C1` [Example 15, 5-[(3R)-3-(1,3-Benzoxazol-6-yloxy)pyrrolidin-1-yl]5-methyl-2,2-diphenylhexanamide], the inhibitory constant (Ki) worked out at 4.25 nM.

On to `CC(C)(CCC(C(N)=O)(c1ccccc1)c1ccccc1)N1CC[C@@H](OCc2ccc(F)c(O)c2)C1` [Example 67, 5-[(3R)-3-(4-Fluoro-3-hydroxy-benzyloxy)-pyrrolidin-1-yl]-5-methyl-2,2-diphenylhexanamide], for which the Ki came to 10.7 nM.

Consider `CC(C)(CCC(C#N)(c1ccccc1)c1ccccc1)N1CC[C@H](OCc2cccc(-c3ccccc3O)c2)C1` [Example 58, 5-{(3S)-3-[(2′-Hydroxybiphenyl-3-yl)methoxy]pyrrolidin-1-yl}-5-methyl-2,2-diphenylhexanenitrile], for which the Ki came to 1580 nM.

Consider `CC(C)(CCC(C(N)=O)(c1ccccc1)c1ccccc1)N1CCC(Oc2cc(F)c(C#N)cc2F)CC1` [Example 94, 5-[4-(4-Cyano-2,5-difluoro-phenoxy)-piperidin-1-yl]-5-methyl-2,2-diphenylhexanoic acid amide], for which the Ki amounted to 12.4 nM.

Regarding `CC(C)(CCC(C(N)=O)(c1ccccc1)c1ccccc1)N1CCC(OCc2cccc(Br)c2)CC1` [Example 91, 5-{4-[(3-Bromobenzyl)oxy]piperidin-1-yl}-5-methyl-2,2-diphenylhexanamide], the Ki was 22.6 nM.

For `CC(C)(CCC(C(N)=O)(c1ccccc1)c1ccccc1)N1CC[C@H](Oc2ccc(-c3ccccc3)cc2)C1` [Example 71, 5-[(3S)-3-(4-Phenylphenoxy)pyrrolidin-1-yl]-5-methyl-2,2-diphenylhexanamide], the Ki is 113 nM.

The term Ki denotes a measure of affinity in units of concentration, obtained from inhibition or displacement.
